Assay results published in patent US20260241012A1, “1,8-NAPHTHYRIDIN-2-ONE HETEROBIFUNCTIONAL BCL6 DEGRADERS” (Treeline Biosciences, Inc., priority 2022, published 2026).

Molecular target: T1, N-terminal HiBiT tagged BCL6 (Homo sapiens, UniProt P41182)
T1 construct: expressed in transfected cells; host or cells: HT1080 (ATCC CCL-121), stably transduced with lentivirus pLV-UBC-N-HiBiT-BCL6-PGK-puro
Assay: HiBiT based degradation assay
Type: cell-based
Conditions: HT1080 cells expressing N-terminal HiBiT tagged BCL6, 5 hours of incubation; for Ymin (5 hr): BCL6 degradation normalized with DMSO control; for DC50: four-parameter logistic model, read-out: EC50 (5 hr)
Procedure, shortened: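 Degradation measured by luminescence from the Nano-Glo HiBiT lytic reagent (15 min, room temperature), normalized to DMSO controls and fitted to a four-parameter curve.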

CNC(=O)COc1cc2cc(Nc3nc(N4CC5(CC[C@H](Nc6ccc7c(C8CCC(=O)NC8=O)nn(C)c7c6)[C@H](C)C5)C4)ncc3Cl)cnc2n(C)c1=O (relative stereo) [Compound 156b, 2-((6-((5-chloro-2-((6R,7S)-7-((3-(2,6-dioxopiperidin-3-yl)-1-methyl-1H-indazol-6-yl)amino)-6-methyl-2-azaspiro[3.5]nonan-2-yl)pyrimidin-4-yl)amino)-1-methyl-2-oxo-1,2-dihydro-1,8-naphthyridin-3-yl)oxy)-N-methylacetamide]
Ymin (5 hr): ++++ (Ymin < 30%)
DC50: < 10 nM

CNC(=O)COc1cc2cc(Nc3nc(N4CCC(O)(CN5CCC(c6cccc7c(C8CCC(=O)NC8=O)nn(C)c67)CC5)CC4)ncc3Cl)cnc2n(C(C)C)c1=O (centres unmarked) [Compound 203, 2-[[6-[[5-chloro-2-[4-[[4-[3-(2,6-dioxo-3-piperidyl)-1-methyl-indazol-7-yl]-1-piperidyl]methyl]-4-hydroxy-1-piperidyl]pyrimidin-4-yl]amino]-1-isopropyl-2-oxo-1,8-naphthyridin-3-yl]oxy]-N-methyl-acetamide]
Ymin (5 hr): ++++ (Ymin < 30%)
DC50: < 10 nM

CNC(=O)COc1cc2cc(Nc3nc(N4CCC(F)(CN5CCC(c6cccc7c(C8CCC(=O)NC8=O)nn(C)c67)CC5)CC4)ncc3Cl)cnc2n(C(C)C)c1=O (centres unmarked) [Compound 161, 2-((6-((5-chloro-2-(4-((4-(3-(2,6-dioxopiperidin-3-yl)-1-methyl-1H-indazol-7-yl)piperidin-1-yl)methyl)-4-fluoropiperidin-1-yl)pyrimidin-4-yl)amino)-1-isopropyl-2-oxo-1,2-dihydro-1,8-naphthyridin-3-yl)oxy)-N-methylacetamide]
Ymin (5 hr): ++++ (Ymin < 30%)
DC50: 10 to 100 nM

CNC(=O)COc1cc2cc(Nc3nc(N4CCC(CN5CCN(c6cccc7c(C8CCC(=O)NC8=O)nn(C)c67)C[C@H]5CO)CC4)ncc3Cl)cnc2n(C(C)C)c1=O (stereo partly drawn) [Compound 231a, 2-[[6-[[5-chloro-2-[4-[[(2S)-4-[3-(2,6-dioxo-3-piperidyl)-1-methyl-indazol-7-yl]-2-(hydroxymethyl)piperazin-1-yl]methyl]-1-piperidyl]pyrimidin-4-yl]amino]-1-isopropyl-2-oxo-1,8-naphthyridin-3-yl]oxy]-N-methyl-acetamide]
Ymin (5 hr): ++++ (Ymin < 30%)
DC50: 10 to 100 nM

CNC(=O)COc1cc2cc(Nc3nc(N4CCN(CC5CCN(c6cccc7c(N8CCC(=O)NC8=O)nn(C)c67)CC5)CC4)ncc3Cl)cnc2n(C(C)C)c1=O [Compound 109, 2-((6-((5-chloro-2-(4-((1-(3-(2,4-dioxotetrahydropyrimidin-1 (2H)-yl)-1-methyl-1H-indazol-7-yl)piperidin-4-yl)methyl)piperazin-1-yl)pyrimidin-4-yl)amino)-1-isopropyl-2-oxo-1,2-dihydro-1,8-naphthyridin-3-yl)oxy)-N-methylacetamide]
Ymin (5 hr): +++ (30% ≤ Ymin < 50%)
DC50: 10 to 100 nM

CNC(=O)COc1cc2cc(Nc3nc(N4C5CC4CN(CC4CCN(c6cccc7c(C8CCC(=O)NC8=O)nn(C)c67)CC4)C5)ncc3Cl)cnc2n(C(C)C)c1=O (centres unmarked) [Compound 173, 2-[[6-[[5-chloro-2-[3-[[1-[3-(2,6-dioxo-3-piperidyl)-1-methyl-indazol-7-yl]-4-piperidyl]methyl]-3,6-diazabicyclo[3.1.1]heptan-6-yl]pyrimidin-4-yl]amino]-1-isopropyl-2-oxo-1,8-naphthyridin-3-yl]oxy]-N-methyl-acetamide]
Ymin (5 hr): ++ (50% ≤ Ymin < 70%)
DC50: 10 to 100 nM

CNC(=O)COc1cc2cc(Nc3nc(N4CCCN(CC5CCN(c6ccc7c(C8CCC(=O)NC8=O)nn(C)c7c6)CC5)CC4)ncc3Cl)cnc2n(C)c1=O (centres unmarked) [Compound 111, 2-((6-((5-chloro-2-(4-((1-(3-(2,6-dioxopiperidin-3-yl)-1-methyl-1H-indazol-6-yl)piperidin-4-yl)methyl)-1,4-diazepan-1-yl)pyrimidin-4-yl)amino)-1-methyl-2-oxo-1,2-dihydro-1,8-naphthyridin-3-yl)oxy)-N-methylacetamide]
Ymin (5 hr): +++ (30% ≤ Ymin < 50%)
DC50: < 10 nM
